Assay results as given in patent US12594264B2, “Modulators of alpha-synuclein proteolysis and associated methods of use” (Arvinas Operations, Inc., priority 2018, dated 2026).

What follows are compounds tested against T1, sarkosyl insoluble (SI) α-synuclein (human α-SYN A53T) (Homo sapiens, UniProt P37840, A53T) (assay: MJFF-14-6-4-2 conformation specific ELISA of sarkosyl insoluble α-synuclein after compound treatment). Conditions: 1 μM compound; protein remaining relative to DMSO control; PFF induced A53T α-synuclein overexpressing HEK293 cells; read-out: Protein Degradation at 1 μM.
T1 construct: expressed in transfected cells
Assay type: cell-based
Protocol: Targeted degradation of sarkosyl insoluble (SI) α-synuclein via exemplary bifunctional compounds was assessed by MJFF-14-6-4-2 conformation specific ELISA following treatment of PFF induced A53T α-synuclein overexpressing HEK293 cells with 1 μM exemplary compound compared to DMSO vehicle control. Degradation activity of the exemplary compounds of Table 2 is expressed as % DMSO control. […] However, the effect of bifunctional targeting degraders, shown in FIG. 5, required the intact E3 ligase binding domain.
Trex293 (doxycycline inducible) cells stably expressing human α-SYN A53T (monoclonal) were plated in poly-d-lysine coated T-75 tissue culture flasks (4.5×10e6 cells/flask) in DMEM with 10% tet-free FBS, 10 μg/ml blasticidin, and 400 μg/ml zeocin. After an overnight incubation, the cells were induced to express α-SYN by treatment with 1 μg/ml doxycycline (Dox) and exemplary bifunctional compound. After a 24 hour dox induction, the medium on the cells was changed to Opti-MEM followed by treatment with α-SYN pre-formed fibrils** (PFFs)(5 μg/flask) pre-complexed with Lipofectamine 2000 transfection reagent for 4 hours. After PFF treatment, the medium was changed back to DMEM with the supplements described above and exemplary bifunctional compound for 48 hours.
Cell pellets were harvested from each flask using 0.25% trypsin followed by spinning at 500×g for 5 minutes. Each pellet was resuspended in 1 ml cold buffer H [Buffer H-10 mM Tris, 1 mM EGTA, 0.8M NaCl, 10% sucrose, pH7.4 containing 1× protease and phosphatase inhibitors] containing protease and phosphatase inhibitors. The resuspended pellets were incubated on ice for 20 minutes followed by centrifugation at 27,200×g for 20 minutes at 4° C. The supernatants were adjusted to 1% sarkosyl (Sigma) and 1% 2-mercaptoethanol followed by incubation for 1 hour at 37° C. on an orbital shaker set to 400 rpm. The samples were then spun at 150,000×g for 35 minutes at room temperature. The supernatant was removed and saved as the soluble fraction and the insoluble pellet was resuspended in 25 μl tris-buffered saline (TBS). Protein concentrations were determined by NanoDrop, and normalized protein concentrations were analyzed by WES capillary electrophoresis as well as an α-SYN oligomer ELISA.
Recombinant human α-SYN was purchased from Proteos. 1 mg aliquots were supplied at 10 mg/ml in 10 mM Tris, 50 mM NaCl, pH7.6. The aliquot was thawed on ice followed by centrifugation at 4° C. for 10 minutes at 12,000×g to pellet any insoluble material. The supernatant was removed and quantitated on a NanoDrop (A280) using Beer's Law (ε=5960 M-1 cm-1). The concentration was adjusted to 5 mg/ml in PBS followed by vortexing for 3 seconds to mix contents. The mixture was incubated in an orbital shaker set to 37° C. at 1,000 rpm for 7 days followed by aliquoting into individual use vials. Prior to addition to cells, an aliquot was thawed at room temperature, then diluted to 1 mg/ml with phosphate-buffered saline (PBS) followed by sonication for 1 minute with a probe sonicator (output 1; 90% duty cycle) in a chem hood.
Coming Costar high bind black well plates were coated with MJFR 14-6-4-2 (Abcam) at 1 μg/ml for 1 hour at 37° C. followed by washing with 1×TBS+0.1% tween-20 (TBS-T) then blocking with 3% bovine serum albumin (BSA) in TBS. After re-washing, samples were added after dilution in diluent (1% BSA/TBS-T). Non-sonicated PFF was used to generate a standard curve. The plates were incubated with sample overnight at 4° C. with shaking. The following day alkaline phosphatase (AP) conjugated MJFR 14-6-4-2 was added to the plate without washing followed by incubation at room temperature for 1 hour with shaking or rocking. The plates were then re-washed and substrate (CDP star alkaline phosphatase detection reagent) was added followed by a 30 minute incubation at room temperature. The plate was read on a luminescence plate reader. The counts were log transformed and read off the standard curve. […]

remaining activity at 1 µM [%] | Structure (SMILES)
< 35 | CNc1ccc(-c2nc3ccc(OCCOCCOCC(=O)N[C@H](C(=O)N4C[C@H](O)C[C@H]4C(=O)N[C@@H](C)c4ccc(-c5scnc5C)cc4)C(C)(C)C)cc3s2)cc1 [Exemplary Compound 1, (2S,4R)-1-[(2S)-3,3-dimethyl-2-[[2-[2-[2-[[2-[4-(methylamino)phenyl]-1,3-benzothiazol-6-yl]oxy]ethoxy]ethoxy]acetyl]amino]butanoyl]-4-hydroxy-N-[(1S)-1-[4-(4-methylthiazol-5-yl)phenyl]ethyl]pyrrolidine-2-carboxamide]
35 to 70 | CNc1ccc(-c2nc3ccc(OCCOCCOCCOCCOCC(=O)N[C@H](C(=O)N4C[C@H](O)C[C@H]4C(=O)N[C@@H](C)c4ccc(-c5scnc5C)cc4)C(C)(C)C)cc3s2)cc1 [Exemplary Compound 3, (2S,4R)-1-((S)-2-(tert-butyl)-17-((2-(4-(methylamino)phenyl)benzo[d]thiazol-6-yl)oxy)-4-oxo-6,9,12,15-tetraoxa-3-azaheptadecanoyl)-4-hydroxy-N-((S)-1-(4-(4-methylthiazol-5-yl)phenyl)ethyl)pyrrolidine-2-carboxamide]
< 35 | CNc1ccc(-c2nc3ccc(OCCOCCOCCOCCOCCOCC(=O)N[C@H](C(=O)N4C[C@H](O)C[C@H]4C(=O)N[C@@H](C)c4ccc(-c5scnc5C)cc4)C(C)(C)C)cc3s2)cc1 [Exemplary Compound 4, (2S,4R)-1-((S)-2-(tert-butyl)-20-((2-(4-(methylamino)phenyl)benzo[d]thiazol-6-yl)oxy)-4-oxo-6,9,12,15,18-pentaoxa-3-azaicosanoyl)-4-hydroxy-N-((S)-1-(4-(4-methylthiazol-5-yl)phenyl)ethyl)pyrrolidine-2-carboxamide]
70 to 120 | Cc1ncsc1-c1ccc([C@H](C)NC(=O)[C@@H]2C[C@@H](O)CN2C(=O)[C@@H](NC(=O)COCCOCCOc2ccc3c(c2)Sc2cc([N+](=O)[O-])ccc2N3)C(C)(C)C)cc1 [Exemplary Compound 8, (2S,4R)-1-[(2S)-3,3-dimethyl-2-[[2-[2-[2-[(7-nitro-10H-phenothiazin-3-yl)oxy]ethoxy]ethoxy]acetyl]amino]butanoyl]-4-hydroxy-N-[(1S)-1-[4-(4-methylthiazol-5-yl)phenyl]ethyl]pyrrolidine-2-carboxamide]
> 120 | Cc1ncsc1-c1ccc([C@H](C)NC(=O)[C@@H]2C[C@@H](O)CN2C(=O)[C@@H](NC(=O)COCCOCCOCCOCCOCCOc2ccc3c(c2)Sc2cc([N+](=O)[O-])ccc2N3)C(C)(C)C)cc1 [Exemplary Compound 11, (2S,4R)-1-((S)-2-(tert-butyl)-20-((7-nitro-10H-phenothiazin-3-yl)oxy)-4-oxo-6,9,12,15,18-pentaoxa-3-azaicosanoyl)-4-hydroxy-N-((S)-1-(4-(4-methylthiazol-5-yl)phenyl)ethyl)pyrrolidine-2-carboxamide]
35 to 70 | O=C1CCC(N2C(=O)c3ccc(OCCOCCOCCOCCOCCOc4ccc5c(c4)Sc4cc([N+](=O)[O-])ccc4N5)cc3C2=O)C(=O)N1 (stereo not drawn) [Exemplary Compound 14, 2-(2,6-dioxopiperidin-3-yl)-5-((14-((7-nitro-10H-phenothiazin-3-yl)oxy)-3,6,9,12-tetraoxatetradecyl)oxy) isoindoline-1,3-dione]
35 to 70 | CN(CCCN1c2ccccc2Sc2ccccc21)CCOCCOCCOc1ccc2c(c1)C(=O)N(C1CCC(=O)NC1=O)C2=O (stereo not drawn) [Exemplary Compound 15, 5-(2-(2-(2-((3-(10H-phenothiazin-10-yl)propyl)(methyl)amino)ethoxy)ethoxy)ethoxy)-2-(2,6-dioxopiperidin-3-yl)isoindoline-1,3-dione]
70 to 120 | CN(CCCN1c2ccccc2Sc2ccccc21)CCOCCOCCOCCOc1ccc2c(c1)C(=O)N(C1CCC(=O)NC1=O)C2=O (stereo not drawn) [Exemplary Compound 16, 2-(2,6-dioxo-3-piperidyl)-5-[2-[2-[2-[2-[methyl(3-phenothiazin-10-ylpropyl)amino]ethoxy]ethoxy]ethoxy]ethoxy]isoindoline-1,3-dione]
35 to 70 | CN(C)c1ccc2c(c1)Sc1cc(OCCOCCOCCOCCOCCOc3ccc4c(c3)C(=O)N(C3CCC(=O)NC3=O)C4=O)ccc1N2 (stereo not drawn) [Exemplary Compound 21, 5-((14-((7-(dimethylamino)-10H-phenothiazin-3-yl)oxy)-3,6,9,12-tetraoxatetradecyl)oxy)-2-(2,6-dioxopiperidin-3-yl)isoindoline-1,3-dione]
35 to 70 | COc1ccc2nc(-c3ccc(N4CC(OC5CCN(CCN6CCN(c7ccc8c(c7)C(=O)N(C7CCC(=O)NC7=O)C8=O)CC6)CC5)C4)cc3)sc2c1 (stereo not drawn) [Exemplary Compound 26, 2-(2,6-dioxopiperidin-3-yl)-5-(4-[2-[4-([1-[4-(6-methoxy-1,3-benzothiazol-2-yl)phenyl]azetidin-3-yl]oxy)piperidin-1-yl]ethyl]piperazin-1-yl)-2,3-dihydro-1H-isoindole-1,3-dione]

Structure (SMILES) | remaining activity at 1 µM [%]
O=C1CCC(N2C(=O)c3ccc(N4CCN(CCN5CCC(O[C@H]6C[C@H](Oc7ccc8c(c7)Sc7cc([N+](=O)[O-])ccc7N8)C6)CC5)CC4)cc3C2=O)C(=O)N1 (stereo partly drawn) [Exemplary Compound 18, 2-(2,6-dioxo-3-piperidyl)-5-[4-[2-[4-[3-[(7-nitro-10H-phenothiazin-3-yl)oxy]cyclobutoxy]-1-piperidyl]ethyl]piperazin-1-yl]isoindoline-1,3-dione] | 70 to 120
O=C1CCC(N2C(=O)c3ccc(OCCCCCN4CCC(O[C@H]5C[C@H](Oc6ccc7c(c6)Sc6cc([N+](=O)[O-])ccc6N7)C5)CC4)cc3C2=O)C(=O)N1 (stereo partly drawn) [Exemplary Compound 19, 2-(2,6-dioxo-3-piperidyl)-5-[5-[4-[3-[(7-nitro-10H-phenothiazin-3-yl)oxy]cyclobutoxy]-1-piperidyl]pentoxy]isoindoline-1,3-dione] | 35 to 70
O=C1CCC(N2C(=O)c3ccc(OCCCCCN4CCC(OC5CN(CCCN6c7ccccc7Sc7ccccc76)C5)CC4)cc3C2=O)C(=O)N1 (stereo not drawn) [Exemplary Compound 22, 2-(2,6-dioxo-3-piperidyl)-5-[5-[4-[1-(3-phenothiazin-10-ylpropyl)azetidin-3-yl]oxy-1-piperidyl]pentoxy]isoindoline-1,3-dione] | 35 to 70
CN(C)c1ccc(-c2nc3ccc(O[C@H]4C[C@H](OCCCN5CCN(c6ccc7c(c6)C(=O)N(C6CCC(=O)NC6=O)C7=O)CC5)C4)cc3s2)cc1 (stereo partly drawn) [Exemplary Compound 24, 2-(2,6-dioxopiperidin-3-yl)-5-(4-[3-[(1r,3r)-3-([2-[4-(dimethylamino)phenyl]-1,3-benzothiazol-6-yl]oxy)cyclobutoxy]propyl]piperazin-1-yl)-2,3-dihydro-1H-isoindole-1,3-dione] | > 120
CN(C)c1ccc(-c2nc3ccc(O[C@H]4C[C@H](OC5CCN(CCCCCOc6ccc7c(c6)C(=O)N(C6CCC(=O)NC6=O)C7=O)CC5)C4)cc3s2)cc1 (stereo partly drawn) [Exemplary Compound 27, 2-(2,6-dioxopiperidin-3-yl)-5-[(5-[4-[(1r,3r)-3-([2-[4-(dimethylamino)phenyl]-1,3-benzothiazol-6-yl]oxy)cyclobutoxy]piperidin-1-yl]pentyl)oxy]-2,3-dihydro-1H-isoindole-1,3-dione] | > 120
